Where two headings read alike, the source gives them in different places.
Legend:
[1] = target: Human α2δ-1 subunit of Cav2.2 calcium channel (Homo sapiens, UniProt P54289); test: Human α2δ-1 subunit of Cav2.2 calcium channel assay ([3H]-Gabapentin binding)
Method: Human α2δ-1 Subunit of Cav2.2 Calcium Channel Assay
Human α2δ-1 enriched membranes (2.5 μg) were incubated with 15 nM of radiolabeled [3H]-Gabapentin in assay buffer containing Hepes-KOH 10 mM, pH 7.4. NSB (non specific binding) was measured by adding 10 μM pregabalin. After 60 min incubation at 27° C., binding reaction was terminated by filtering through Multiscreen GF/C (Millipore) presoaked in 0.5% polyethyleneimine in Vacuum Manifold Station, followed by 3 washes with ice-cold filtration buffer containing 50 mM Tris-HCl, pH 7.4. Filter plates were dried at 60° C. for 1 hour and 30 μl of scintillation cocktail were added to each well before radioactivity reading. Readings were performed in a Trilux 1450 Microbeta radioactive counter (Perkin Elmer).

human μ-opioid receptor = target: T1, human μ-opioid receptor (Homo sapiens, UniProt P35372); test: Human μ-opioid receptor radioligand assay ([3H]-DAMGO); format: binding
T1 construct: expressed in transfected cells; host or cells: CHO-K1
T1 sequence (P35372 whole entry): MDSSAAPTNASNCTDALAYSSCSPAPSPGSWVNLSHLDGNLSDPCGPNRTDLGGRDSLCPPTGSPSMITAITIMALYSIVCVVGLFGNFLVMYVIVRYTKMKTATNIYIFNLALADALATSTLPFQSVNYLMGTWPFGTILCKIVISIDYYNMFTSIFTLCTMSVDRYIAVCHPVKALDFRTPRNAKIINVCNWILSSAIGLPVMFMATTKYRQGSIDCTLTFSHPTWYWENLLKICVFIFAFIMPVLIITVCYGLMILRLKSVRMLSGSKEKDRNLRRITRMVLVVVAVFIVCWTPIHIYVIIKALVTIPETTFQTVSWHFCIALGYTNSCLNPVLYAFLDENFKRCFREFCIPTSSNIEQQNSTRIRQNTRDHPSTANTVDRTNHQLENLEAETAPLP
Method: Human μ-Opioid Receptor Radioligand Assay
To investigate binding properties of test compounds to human μ-opioid receptor, transfected CHO-K1 cell membranes and [^3H]-DAMGO (Perkin Elmer, ES-542-C), as the radioligand, were used. The assay was carried out with 20 μg of membrane suspension, 1 nM of [^3H]-DAMGO in either absence or presence of either buffer or 10 μM Naloxone for total and non-specific binding, respectively. Binding buffer contained Tris-HCl 50 mM, MgCl2 5 mM at pH 7.4. Plates were incubated at 27° C. for 60 minutes. After the incubation period, the reaction mix was then transferred to MultiScreen HTS, FC plates (Millipore), filtered and plates were washed 3 times with ice-cold 10 mM Tris-HCL (pH 7.4). Filters were dried and counted at approximately 40% efficiency in a MicroBeta scintillation counter (Perkin-Elmer) using EcoScint liquid scintillation cocktail.

[2] = human α2δ-1 enriched membranes, 15 nM [3H]-Gabapentin, read-out: α2δ-1 binding
[3] = transfected CHO-K1 cell membranes, 1 nM [3H]-DAMGO, read-out: μ binding

Sequence of Human α2δ-1 subunit of Cav2.2 calcium channel (P54289 25-1103): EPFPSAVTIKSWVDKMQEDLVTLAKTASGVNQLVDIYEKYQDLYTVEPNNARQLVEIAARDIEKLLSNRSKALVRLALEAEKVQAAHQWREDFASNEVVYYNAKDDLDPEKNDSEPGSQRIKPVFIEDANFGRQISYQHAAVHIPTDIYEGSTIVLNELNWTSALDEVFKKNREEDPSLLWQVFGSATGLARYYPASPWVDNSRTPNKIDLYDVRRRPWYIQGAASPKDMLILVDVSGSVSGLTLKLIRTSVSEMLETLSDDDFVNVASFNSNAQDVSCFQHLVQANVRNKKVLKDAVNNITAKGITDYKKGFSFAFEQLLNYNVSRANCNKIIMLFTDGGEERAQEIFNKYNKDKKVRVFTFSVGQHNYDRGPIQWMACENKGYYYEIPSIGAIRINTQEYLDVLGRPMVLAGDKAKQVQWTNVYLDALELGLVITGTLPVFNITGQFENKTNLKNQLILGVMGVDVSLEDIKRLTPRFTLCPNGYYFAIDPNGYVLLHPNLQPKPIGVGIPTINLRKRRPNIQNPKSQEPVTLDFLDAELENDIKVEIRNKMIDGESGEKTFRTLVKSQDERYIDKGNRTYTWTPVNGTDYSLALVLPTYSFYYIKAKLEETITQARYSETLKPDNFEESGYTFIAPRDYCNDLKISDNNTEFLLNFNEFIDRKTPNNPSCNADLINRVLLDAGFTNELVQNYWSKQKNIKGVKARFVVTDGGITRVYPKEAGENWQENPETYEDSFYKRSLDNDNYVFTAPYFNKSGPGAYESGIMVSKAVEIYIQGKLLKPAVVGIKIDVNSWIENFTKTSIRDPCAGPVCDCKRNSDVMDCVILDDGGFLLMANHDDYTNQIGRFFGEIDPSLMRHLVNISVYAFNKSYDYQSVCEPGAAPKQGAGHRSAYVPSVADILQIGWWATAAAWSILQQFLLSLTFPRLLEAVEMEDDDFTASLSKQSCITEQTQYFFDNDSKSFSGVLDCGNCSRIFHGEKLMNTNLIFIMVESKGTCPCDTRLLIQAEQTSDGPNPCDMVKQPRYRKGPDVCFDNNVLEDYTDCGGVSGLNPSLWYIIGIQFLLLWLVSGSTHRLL

NCc1cc(Cc2ccc(O)cc2)n(Cc2ccccc2)n1 [Example 46, 4-{[3-(Aminomethyl)-1-benzyl-1H-pyrazol-5-yl]methyl}phenol]
Ki [1, 2]: 3000 to 5000 nM
Ki (human μ-opioid receptor; [3]): > 500 nM

CCC(CN)c1cc(Cc2ccc(O)cc2)n(-c2ccc(Cl)cc2Cl)n1 (centres unmarked) [Example 60, 4-{[3-(1-Aminobutan-2-yl)-1-(2,4-dichlorophenyl)-1H-pyrazol-5-yl]methyl}phenol]
Ki [1]: > 5000 nM
Ki (human μ-opioid receptor): < 100 nM

C[C@H](N)c1cc(Cc2ccc(O)cc2)n(-c2ccc(Cl)cc2Cl)n1 [Example 61, (S)-4-{[3-(1-Aminoethyl)-1-(2,4-dichlorophenyl)-1H-pyrazol-5-yl]methyl}phenol]
Ki [1]: < 500 nM
Ki (human μ-opioid receptor): < 100 nM

COc1ccc(-n2nc(CN)cc2Cc2ccccc2)cc1 [Example 10, [5-Benzyl-1-(4-methoxyphenyl)-1H-pyrazol-3-yl]methanamine]
Ki [1, 2]: 500 to 3000 nM
Ki (human μ-opioid receptor; [3]): > 500 nM

COc1ccc(Cc2cc(CN)nn2-c2ccc(OC)cc2Cl)cc1 [Example 4, [1-(2-Chloro-4-methoxyphenyl)-5-(4-methoxybenzyl)-1H-pyrazol-3-yl]methanamine]
Ki [1]: 500 to 3000 nM
Ki (human μ-opioid receptor): 100 to 500 nM

NC(CO)c1cc(Cc2ccc(O)cc2)n(-c2ccc(Cl)cc2Cl)n1 (centres unmarked) [Example 71, 4-{[3-(1-Amino-2-hydroxyethyl)-1-(2,4-dichlorophenyl)-1H-pyrazol-5-yl]methyl}phenol]
Ki [1]: > 5000 nM
Ki (human μ-opioid receptor): 100 to 500 nM

COc1ccc(Oc2cc(CN)nn2-c2ccc(Cl)cc2Cl)cc1 [Example 17, [1-(2,4-Dichlorophenyl)-5-(4-methoxyphenoxy)-1H-pyrazol-3-yl]methanamine]
Ki [1]: 3000 to 5000 nM
Ki (human μ-opioid receptor): 100 to 500 nM

NCc1cc(Cc2ccc(O)cc2)n(-c2ccccn2)n1 [Example 43, 4-{[3-(Aminomethyl)-1-(pyridin-2-yl)-1H-pyrazol-5-yl]methyl}phenol]
Ki [1, 2]: > 5000 nM
Ki (human μ-opioid receptor; [3]): > 500 nM

CNCc1cc(Cc2ccc(OC)cc2)n(-c2ccc(Cl)cc2Cl)n1 [Example 22, 1-[1-{2,4-Dichlorophenyl)-5-(4-methoxybenzyl)-1H-pyrazol-3-yl]-N-methylmethanamine]
Ki [1, 2]: 3000 to 5000 nM
Ki (human μ-opioid receptor; [3]): > 500 nM

NC(CN1CCCCC1)c1cc(Cc2ccc(O)cc2)n(-c2ccc(Cl)cc2Cl)n1 (centres unmarked) [Example 72, 4-({3-[1-Amino-2-(piperidin-1-yl)ethyl]-1-(2,4-dichlorophenyl)-1H-pyrazol-5-yl}methyl)phenol]
Ki [1]: > 5000 nM
Ki (human μ-opioid receptor): 100 to 500 nM

CC(C)Cn1nc(CN)cc1Cc1ccc(O)cc1 [Example 44, 4-{[3-(Aminomethyl)-1-isobutyl-1H-pyrazol-5-yl]methyl}phenol]
Ki [1]: < 500 nM
Ki (human μ-opioid receptor): > 500 nM

CC(N)Cc1cc(Cc2ccc(O)cc2)n(-c2ccc(Cl)cc2Cl)n1 (centres unmarked) [Example 68, 4-{[3-(2-Aminopropyl)-1-(2,4-dichlorophenyl)-1H-pyrazol-5-yl]methyl}phenol]
Ki [1]: > 5000 nM
Ki (human μ-opioid receptor): < 100 nM

COc1ccc(-n2nc([C@@H](C)N)cc2Cc2ccc(O)cc2)c(Cl)c1 [Example 69, (R)-4-{[3-(1-Aminoethyl)-1-(2-chloro-4-methoxyphenyl)-1H-pyrazol-5-yl]methyl}phenol]
Ki [1]: > 5000 nM
Ki (human μ-opioid receptor): 100 to 500 nM

CC(N)c1cc(C(C)(C)c2ccc(O)cc2)n(-c2ccc(Cl)cc2Cl)n1 (centres unmarked) [Example 55, 4-{2-[3-(1-Aminoethyl)-1-(2,4-dichlorophenyl)-1H-pyrazol-5-yl]propan-2-yl]phenol]
Ki [1, 2]: 500 to 3000 nM
Ki (human μ-opioid receptor; [3]): > 500 nM

CCCC(N)c1cc(Cc2ccc(OC)c(F)c2)n(-c2ccc(Cl)cc2Cl)n1 (centres unmarked) [Example 31, 1-[1-(2,4-Dichlorophenyl)-5-(3-fluoro-4-methoxybenzyl)-1H-pyrazol-3-yl]butan-1-amine]
Ki [1, 2]: > 5000 nM
Ki (human μ-opioid receptor; [3]): > 500 nM

NCc1cc(Cc2ccc(O)cc2)n(-c2ccc(O)cc2Cl)n1 [Example 41, 4-[3-(Aminomethyl)-5-(4-hydroxybenzyl)-1H-pyrazol-1-yl]-3-chlorophenol]
Ki [1]: > 5000 nM
Ki (human μ-opioid receptor): < 100 nM

CC(C)(N)c1cc(Cc2ccc(O)c(F)c2)n(-c2ccc(Cl)cc2Cl)n1 [Example 56, 4-{[3-(2-Aminopropan-2-yl)-1-(2,4-dichlorophenyl)-1H-pyrazol-5-yl]methyl}-2-fluorophenol]
Ki [1]: 3000 to 5000 nM
Ki (human μ-opioid receptor): < 100 nM

COc1ccc(Cc2cc(CN)nn2-c2ccccc2Cl)cc1 [Example 2, [1-(2-Chlorophenyl)-5-(4-methoxybenzyl)-1H-pyrazol-3-yl]methanamine]
Ki [1, 2]: 500 to 3000 nM
Ki (human μ-opioid receptor; [3]): > 500 nM

CCOc1ccc(-n2nc(CN)cc2Cc2ccc(O)cc2)c(Cl)c1 [Example 7, 4-{[3-(Aminomethyl)-1-(2-chloro-4-ethoxyphenyl)-1H-pyrazol-5-yl]methyl}phenol]
Ki [1]: 500 to 3000 nM
Ki (human μ-opioid receptor): < 100 nM

NCc1cc(Cc2ccc(O)cc2)n(Cc2ccc(Cl)cc2)n1 [Example 45, 4-{[3-(Aminomethyl)-1-(4-chlorobenzyl)-1H-pyrazol-5-yl]methyl}phenol]
Ki [1, 2]: 500 to 3000 nM
Ki (human μ-opioid receptor; [3]): > 500 nM

CC(N)c1cc(Cc2ccc(O)c(F)c2)n(-c2ccc(Cl)cc2Cl)n1 (stereo in doubt) [Example 64, (R)-4-{[3-(1-Aminoethyl)-1-(2,4-dichlorophenyl)-1H-pyrazol-5-yl]methyl}-2-fluorophenol]
Ki [1]: > 5000 nM
Ki (human μ-opioid receptor): > 500 nM

COc1ccc(Cc2cc(CN)nn2Cc2ccc(Cl)cc2)cc1 [Example 12, [1-(4-Chlorobenzyl)-5-(4-methoxybenzyl)-1H-pyrazol-3-yl]methanamine]
Ki [1, 2]: 500 to 3000 nM
Ki (human μ-opioid receptor; [3]): > 500 nM

COc1ccc(Cc2cc(CN)nn2-c2ccc(F)cc2Cl)cc1 [Example 5, [1-(2-Chloro-4-fluorophenyl)-5-(4-methoxybenzyl)-1H-pyrazol-3-yl]methanamine]
Ki [1, 2]: 500 to 3000 nM
Ki (human μ-opioid receptor; [3]): > 500 nM

CC(N)c1cc(Cc2ccc(O)c(F)c2)n(-c2ccc(Cl)cc2Cl)n1 (stereo in doubt) [Example 63, (S)-4-{[3-(1-Aminoethyl)-1-(2,4-dichlorophenyl)-1H-pyrazol-5-yl]methyl}-2-fluorophenol]
Ki [1]: > 5000 nM
Ki (human μ-opioid receptor): > 500 nM

COc1ccc(-n2nc([C@H](C)N)cc2Cc2ccc(O)cc2)c(Cl)c1 [Example 70, (S)-4-{[3-(1-Aminoethyl)-1-(2-chloro-4-methoxyphenyl)-1H-pyrazol-5-yl]methyl}phenol]
Ki [1]: < 500 nM
Ki (human μ-opioid receptor): 100 to 500 nM

NCc1cc(Cc2ccc(O)cc2)n(-c2ccc(F)cc2Cl)n1 [Example 42, 4-{[3-(Aminomethyl)-1-(2-chloro-4-fluorophenyl)-1H-pyrazol-5-yl]methyl}phenol]
Ki [1]: 500 to 3000 nM
Ki (human μ-opioid receptor): 100 to 500 nM

CC(N)c1cc(Cc2ccc(O)cc2)n(C2CCCCC2)n1 (centres unmarked) [Example 65, 4-{[3-(1-Aminoethyl)-1-cyclohexyl-1H-pyrazol-5-yl]methyl}phenol]
Ki [1]: < 500 nM
Ki (human μ-opioid receptor): > 500 nM

NCc1cc(Cc2ccc(O)cc2)n(Cc2ccccc2Cl)n1 [Example 47, 4-{[3-(Aminomethyl)-1-(2-chlorobenzyl)-1H-pyrazol-5-yl]methyl}phenol]
Ki [1, 2]: 500 to 3000 nM
Ki (human μ-opioid receptor; [3]): > 500 nM

COc1ccc(C(C)(C)c2cc(C(C)N)nn2-c2ccc(Cl)cc2Cl)cc1 (centres unmarked) [Example 33, 1-[1-(2,4-Dichlorophenyl)-5-(2-(4-methoxyphenyl)propan-2-yl)-1H-pyrazol-3-yl]ethanamine]
Ki [1, 2]: > 5000 nM
Ki (human μ-opioid receptor; [3]): > 500 nM

CCC(N)c1cc(Cc2ccc(OC)cc2)n(-c2ccc(Cl)cc2Cl)n1 (centres unmarked) [Example 32, 1-[1-(2,4-Dichlorophenyl)-5-(4-methoxybenzyl)-1H-pyrazol-3-yl]propan-1-amine]
Ki [1, 2]: > 5000 nM
Ki (human μ-opioid receptor; [3]): > 500 nM

NCc1cc(Cc2ccc(O)cc2)n(Cc2ccc(Cl)cc2Cl)n1 [Example 48]
Ki [1, 2]: 500 to 3000 nM
Ki (human μ-opioid receptor; [3]): > 500 nM

COc1ccc(Cc2cc(CN)nn2C(C)c2ccccc2)cc1 (centres unmarked) [Example 16, [5-(4-Methoxybenzyl)-1-(1-phenylethyl)-1H-pyrazol-3-yl]methanamine]
Ki [1, 2]: 500 to 3000 nM
Ki (human μ-opioid receptor; [3]): > 500 nM

NC(CN1CCOCC1)c1cc(Cc2ccc(O)cc2)n(-c2ccc(Cl)cc2Cl)n1 (centres unmarked) [Example 73, 4-{[3-(1-Amino-2-morpholinoethyl)-1-(2,4-dichlorophenyl)-1H-pyrazol-5-yl]methyl}phenol]
Ki [1, 2]: > 5000 nM
Ki (human μ-opioid receptor; [3]): > 500 nM

COc1ccc(Cc2cc(CN)nn2-c2ccccc2)cc1 [Example 19, [5-(4-Methoxybenzyl)-1-phenyl-1H-pyrazol-3-yl]methanamine]
Ki [1, 2]: 500 to 3000 nM
Ki (human μ-opioid receptor; [3]): > 500 nM

CCNCc1cc(Cc2ccc(OC)cc2)n(CC(C)C)n1 [Example 23, N-{[1-Isobutyl-5-(4-methoxybenzyl)-1H-pyrazol-3-yl]methyl}ethanamine]
Ki [1, 2]: 500 to 3000 nM
Ki (human μ-opioid receptor; [3]): > 500 nM

NCc1cc(Cc2ccccc2)n(-c2ccc(Cl)cc2Cl)n1 [Example 9, [5-Benzyl-1-(2,4-dichlorophenyl)-1H-pyrazol-3-yl]methanamine]
Ki [1, 2]: 500 to 3000 nM
Ki (human μ-opioid receptor; [3]): > 500 nM

CC(c1ccccc1)n1nc(CN)cc1Cc1ccc(O)cc1 (centres unmarked) [Example 49, 4-{[3-(Aminomethyl)-1-(1-phenylethyl)-1H-pyrazol-5-yl]methyl}phenol]
Ki [1, 2]: > 5000 nM
Ki (human μ-opioid receptor; [3]): > 500 nM

Source: patent US20200002283A1, “PYRAZOLE DERIVATIVES HAVING ACTIVITY AGAINST PAIN” (priority 2016, published 2020)
